# Earlier results as cited in patent publication US20130217055A1, “METHOD FOR PREDICTING TYROSINE KINASE INHIBITOR (TKI) RESISTANCE IN PATIENTS SUFFERING FROM CHRONIC MYELOGENOUS LEUKEMIA (CML)” (PamGene B.V., priority 2010, published 2013).
# Tested on: CML patients
compound,measurement,setting,value
Cc1ccc(NC(=O)c2ccc(CN3CCN(C)CC3)cc2)cc1Nc1nccc(-c2cccnc2)n1 [Imatinib],complete or nearly complete cytogenetic remission,patients treated in chronic phase CML,up to 80% of patients
same,CML patients treated that are or become resistant to the treatment,primary or secondary resistance,about 20%
